Reference: patent US20230159527A1, “COMPOUNDS AS BCL-2 INHIBITORS” (Fochon Pharmaceuticals, Ltd., priority 2020, published 2023)

test system: Toledo cells; assay: Cell proliferation assay, Toledo cells (MTS, 72 h); assay type: cell-based; details: Homo sapiens, Toledo cells, MTS, read-out: Toledo IC50
How it was run: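 IC50 was derived from 490 nm absorbance after a 2 h MTS step. Before that, compounds at 1.5–10000 nM final (nine points) acted on Toledo cells for 72 h at 37 °C, 5% CO2. Cells were seeded at 30000/well in 10% FBS RPMI-1640 and rested 4 h before dosing.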

Structure (SMILES) | IC50
CO[C@H]1CC[C@@H]([C@@H]2COc3cc(S(=O)(=O)NC(=O)c4ccc(N5CCC6(CC5)CC(N5CCC[C@H]5c5ccccc5C(C)C)C6)cc4Oc4cnc5[nH]cc(F)c5c4)cc([N+](=O)[O-])c3N2)CC1 (single isomer, unassigned) [Example D-46, 2-((3-fluoro-1H-pyrrolo[2,3-b]pyridin-5-yl)oxy)-4-(2-((R or S)-2-(2-isopropylphenyl)pyrrolidin-1-yl)-7-azaspiro[3.5]nonan-7-yl)-N-(((R)-3-((1s,4S)-4-methoxycyclohexyl)-5-nitro-3,4-dihydro-2H-benzo[b][1,4]oxazin-7-yl)sulfonyl)benzamide] | 1 nM
CC(C)c1ccccc1[C@@H]1CCCN1C1CC2(CCN(c3ccc(C(=O)NS(=O)(=O)c4cc5c(c([N+](=O)[O-])c4)N[C@@H](C[C@H]4CC[C@](C)(O)CC4)CO5)c(Oc4cnc5[nH]cc(F)c5c4)c3)CC2)C1 (single isomer, unassigned) [Example D-19, 2-((3-fluoro-1H-pyrrolo[2,3-b]pyridin-5-yl)oxy)-N-(((S)-3-(((1r,4S)-4-hydroxy-4-methylcyclohexyl)methyl)-5-nitro-3,4-dihydro-2H-benzo[b][1,4]oxazin-7-yl)sulfonyl)-4-(2-((R or S)-2-(2-isopropylphenyl)pyrrolidin-1-yl)-7-azaspiro[3.5]nonan-7-yl)benzamide] | 9 nM
CC(C)c1ccccc1[C@@H]1CCCN1C1CC2(CCN(c3ccc(C(=O)NS(=O)(=O)c4cc5c(c([N+](=O)[O-])c4)N[C@@H]([C@H]4CC[C@](C)(O)CC4)CO5)c(Oc4cc5cc[nH]c5nc4O[C@H]4CCOC4)c3)CC2)C1 (single isomer, unassigned) [Example D-74, N-(((S)-3-((1r,4S)-4-hydroxy-4-methylcyclohexyl)-5-nitro-3,4-dihydro-2H-benzo[b][1,4]oxazin-7-yl)sulfonyl)-4-(2-((R or S)-2-(2-isopropylphenyl)pyrrolidin-1-yl)-7-azaspiro[3.5]nonan-7-yl)-2-((6-(((S)-tetrahydrofuran-3-yl)oxy)-1H-pyrrolo[2,3-b]pyridin-5-yl)oxy)benzamide] | 1 nM
Cc1nc2[nH]ccc2cc1Oc1cc(N2CCC3(CC2)CC(N2CCC[C@H]2c2ccccc2C(C)C)C3)ccc1C(=O)NS(=O)(=O)c1cc2c(c([N+](=O)[O-])c1)N[C@@H]([C@H]1CC[C@](C)(O)CC1)CO2 (single isomer, unassigned) [Example D-39, N-(((S)-3-((1r,4S)-4-hydroxy-4-methylcyclohexyl)-5-nitro-3,4-dihydro-2H-benzo[b][1,4]oxazin-7-yl)sulfonyl)-4-(2-((R or S)-2-(2-isopropylphenyl)pyrrolidin-1-yl)-7-azaspiro[3.5]nonan-7-yl)-2-((6-methyl-1H-pyrrolo[2,3-b]pyridin-5-yl)oxy)benzamide] | 1 nM
CC(C)c1ccccc1[C@H]1CCCN1C1CC2(CCN(c3ccc(C(=O)NS(=O)(=O)c4cc5c(c([N+](=O)[O-])c4)NC([C@H]4COCCO4)CO5)c(Oc4cnc5[nH]cc(F)c5c4)c3)CC2)C1 (single isomer, unassigned) [Example D-50a, N-(((R or S)-3-((S)-1,4-dioxan-2-yl)-5-nitro-3,4-dihydro-2H-benzo[b][1,4]oxazin-7-yl)sulfonyl)-2-((3-fluoro-1H-pyrrolo[2,3-b]pyridin-5-yl)oxy)-4-(2-((R or S)-2-(2-isopropylphenyl)pyrrolidin-1-yl)-7-azaspiro[3.5]nonan-7-yl)benzamide] | 1 nM
CC(C)c1ccccc1[C@@H]1CCCN1C1CC2(CCN(c3ccc(C(=O)NS(=O)(=O)c4cc5c(c([N+](=O)[O-])c4)S[C@@H]([C@H]4CC[C@](C)(O)CC4)CO5)c(Oc4cnc5[nH]cc(F)c5c4)c3)CC2)C1 (single isomer, unassigned) [Example E-2, 2-((3-fluoro-1H-pyrrolo[2,3-b]pyridin-5-yl)oxy)-N-(((S)-3-((1r,4S)-4-hydroxy-4-methylcyclohexyl)-5-nitro-2,3-dihydrobenzo[b][1,4]oxathiin-7-yl)sulfonyl)-4-(2-((R or S)-2-(2-isopropylphenyl)pyrrolidin-1-yl)-7-azaspiro[3.5]nonan-7-yl)benzamide] | 1 nM
CC(C)c1ccccc1[C@@H]1CCCN1C1CC2(CCN(c3ccc(C(=O)NS(=O)(=O)c4cc5c(c([N+](=O)[O-])c4)N[C@@H]([C@H]4CC[C@](C)(O)CC4)CO5)c(Oc4cc5cc[nH]c5nc4OC[C@@H]4COCCN4C(=O)OC(C)(C)C)c3)CC2)C1 (single isomer, unassigned) [Example D-215, tert-butyl (S)-3-(((5-(2-((((S)-3-((1r,4S)-4-hydroxy-4-methylcyclohexyl)-5-nitro-3,4-dihydro-2H-benzo[b][1,4]oxazin-7-yl)sulfonyl)carbamoyl)-5-(2-((R or S)-2-(2-isopropylphenyl)pyrrolidin-1-yl)-7-azaspiro[3.5]nonan-7-yl)phenoxy)-1H-pyrrolo[2,3-b]pyridin-6-yl)oxy)methyl) morpholine-4-carboxylate] | 1 nM
CC(C)c1ccccc1[C@@H]1CCCN1C1CC2(CCN(c3ccc(C(=O)NS(=O)(=O)c4cc5c(c([N+](=O)[O-])c4)N[C@@H]([C@H]4CC[C@](C)(O)CC4)CO5)c(Oc4cc5c(F)c[nH]c5nc4OC[C@H](C)O)c3)CC2)C1 (single isomer, unassigned) [Example D-221, 2-((3-fluoro-6-((S)-2-hydroxypropoxy)-1H-pyrrolo[2,3-b]pyridin-5-yl)oxy)-N-(((S)-3-((1r,4S)-4-hydroxy-4-methylcyclohexyl)-5-nitro-3,4-dihydro-2H-benzo[b][1,4]oxazin-7-yl)sulfonyl)-4-(2-((R or S)-2-(2-isopropylphenyl)pyrrolidin-1-yl)-7-azaspiro[3.5]nonan-7-yl)benzamide] | 1 nM
CC(C)c1ccccc1[C@H]1CCCN1C1CC2(CCN(c3ccc(C(=O)NS(=O)(=O)c4cc5c(c([N+](=O)[O-])c4)NC([C@@H]4COCCO4)CO5)c(Oc4cnc5[nH]cc(F)c5c4)c3)CC2)C1 (single isomer, unassigned) [Example D-49a, N-(((R or S)-3-((R)-1,4-dioxan-2-yl)-5-nitro-3,4-dihydro-2H-benzo[b][1,4]oxazin-7-yl)sulfonyl)-2-((3-fluoro-1H-pyrrolo[2,3-b]pyridin-5-yl)oxy)-4-(2-((R or S)-2-(2-isopropylphenyl)pyrrolidin-1-yl)-7-azaspiro[3.5]nonan-7-yl)benzamide] | 1 nM
CC(C)c1ccccc1[C@@H]1CCC[C@@H]1N1CC2(CCN(c3ccc(C(=O)NS(=O)(=O)c4cnc(NC[C@H]5CC[C@](C)(O)CC5)c([N+](=O)[O-])c4)c(Oc4cc5cc[nH]c5nc4Cl)c3)CC2)C1 (relative stereo) [Example A-159, 2-((6-chloro-1H-pyrrolo[2,3-b]pyridin-5-yl)oxy)-N-((6-((((1r,4r)-4-hydroxy-4-methylcyclohexyl)methyl)amino)-_ 5-nitropyridin-3-yl)sulfonyl)-4-(2-((1S,2S or 1R,2R)-2-(2-isopropylphenyl)cyclo-pentyl)-2,7-diazaspiro[3.5]nonan-7-yl) benzamide] | 1 nM
CC(C)c1ccccc1[C@@H]1CCC[C@@H]1N1CC2(CCN(c3ccc(C(=O)NS(=O)(=O)c4cc5c(c([N+](=O)[O-])c4)N[C@@H]([C@H]4CC[C@](C)(O)CC4)CO5)c(Oc4cc5cc[nH]c5nc4OC[C@@H]4COCCO4)c3)CC2)C1 (single isomer, unassigned) [Example D-258, 2-((6-(((S)-1,4-dioxan-2-yl)methoxy)-1H-pyrrolo[2,3-b]pyridin-5-yl)oxy)-N-((S)-3-((1r,4S)-4-hydroxy-4-methylcyclohexyl)-5-nitro-3,4-dihydro-2H-benzo[b][1,4]oxazin-7-yl)sulfonyl)-4-(2-((1S,2S or 1R,2R)-2-(2-isopropylphenyl)cyclopentyl)-2,7-diazaspiro[3.5] nonan-7-yl)benzamide] | 1 nM
CC(C)c1ccccc1[C@@H]1CCC(=O)N1C1CC2(CCN(c3ccc(C(=O)NS(=O)(=O)c4cc5c(c([N+](=O)[O-])c4)N[C@@H]([C@H]4CC[C@](C)(O)CC4)CO5)c(Oc4cnc5[nH]cc(F)c5c4)c3)CC2)C1 [Example D-257, 2-((3-fluoro-1H-pyrrolo[2,3-b]pyridin-5-yl)oxy)-N-(((S)-3-((1r,4S)-4-hydroxy-4-methylcyclohexyl)-5-nitro-3,4-dihydro-2H-benzo[b] [1,4]oxazin-7-yl)sulfonyl)-4-(2-((S)-2-(2-isopropylphenyl)-5-oxopyrrolidin-1-yl)-7-azaspiro[3.5]nonan-7-yl)benzamide] | 1 nM
CC(C)c1ccccc1[C@@H]1CCCN1C1CC2(CCN(c3ccc(C(=O)NS(=O)(=O)c4cc5c(c([N+](=O)[O-])c4)N[C@@H]([C@H]4CC[C@](C)(O)CC4)CO5)c(Oc4cc5cc[nH]c5nc4OC(F)F)c3)CC2)C1 (single isomer, unassigned) [Example D-11, 2-((6-(difluoromethoxy)-1H-pyrrolo [2,3-b]pyridin-5-yl)oxy)-N-(((S)-3-((1r,4S)-4-hydroxy-4-methylcyclohexyl)-5-nitro-3,4-dihydro-2H-benzo[b][1,4]oxazin-7-yl)sulfonyl)-4-(2-((R or S)-2-(2-isopropylphenyl)pyrrolidin-1-yl)-7-azaspiro[3.5]nonan-7-yl)benzamide] | 1 nM

same assay, conditions: Toledo cells, MTS, read-out: Toledo IC50

Structure (SMILES) | IC50
CC(C)c1ccccc1[C@H]1CCCN1C1CC2(CCN(c3ccc(C(=O)NS(=O)(=O)c4cc5c(c([N+](=O)[O-])c4)NC([C@@H]4COCCO4)CO5)c(Oc4cnc5[nH]cc(F)c5c4)c3)CC2)C1 (single isomer, unassigned) [Example D-49b, N-(((R or S)-3-((R)-1,4-dioxan-2-yl)-5-nitro-3,4-dihydro-2H-benzo[b][1,4]oxazin-7-yl)sulfonyl)-2-((3-fluoro-1H-pyrrolo[2,3-b]pyridin-5-yl)oxy)-4-(2-((R or S)-2-(2-isopropylphenyl)pyrrolidin-1-yl)-7-azaspiro[3.5]nonan-7-yl)benzamide] | 1 nM
